Read-outs that look alike come from different tables or passages of the source. No end group written: not given here.
Experiments:
[1] = tested on: Staphylococcus aureus; assay type: cell-based
Procedure: Additional antimicrobial agents were evaluated for antimicrobial activity, including 23 computationally-derived analogues of SEQ ID NO: 3. These analogues were grouped into two functional series, including those synthesized for improved helicity (Table 2; A-P) and those synthesized for enhanced activity (Table 2; IND, Q-T, and W-X). The antimicrobial activity of the synthetic analogues provided in Table 2 were evaluated using standard techniques such as those described in Sang, et al. 2007 Dev. Comp. Immunol., and herein incorporated by reference. […] The additional antimicrobial agent analogs optimized for helical stability in Example 2 (Table 3) were evaluated for antimicrobial activity. The antimicrobial activity of the synthetic analogues provided in Table 3 were evaluated using standard techniques such as those described in Sang, et al. 2007 Dev. Comp. Immunol., and herein incorporated by reference.

[2] = tested on: Streptococcus dysgalactiae; assay type: cell-based
Procedure: (§1) The antimicrobial agents disclosed are derivatives of SEQ. ID. NO.: 3, having 14 amino acids and a broad spectrum of antimicrobial activity. The antimicrobial agents of the disclosure were synthesized and analyzed to evaluate antimicrobial activity. Initially, the antimicrobial agent of SEQ ID NO.: 3 was evaluated for inhibition of clinical isolates of common mastitis pathogens (Table 1).
(§2) The additional antimicrobial agent analogs optimized for helical stability in Example 2 (Table 3) were evaluated for antimicrobial activity. The antimicrobial activity of the synthetic analogues provided in Table 3 were evaluated using standard techniques such as those described in Sang, et al. 2007 Dev. Comp. Immunol., and herein incorporated by reference.
(§3) The antimicrobial activity of SEQ ID NO. 8 was further evaluated against clinical isolates of mastitis-causing bacteria (Table 5).

[3] = tested on: Staphylococcus aureus; assay type: cell-based; remark: listed apart in the source
Procedure: as §1, §2, §3

[4] = tested on: Klebsiella pneumoniae; assay type: cell-based
Procedure: as §1, §2, §3

[5] = tested on: Staphylococcus aureus; experiment: Mastitis mouse model, CFU in mammary glands; assay type: in vivo, Balb/c mice; conditions: 32 μg per gland intra-mammarily, every 24 hrs for 3 days from 24 hours post-infection; Kruskal-Wallis with Dunn's post-test, 5% level of significance
Procedure: The antimicrobial agent of SEQ ID NO: 8 was evaluated using an in vivo model of bacterial infection to assess the antimicrobial activity of the agent. The following methods and materials were used.
Staphylococcus aureus was isolated from milk from dairy cows with clinical mastitis (Livestock Disease Diagnostic Center, University of Kentucky. Lexington, Ky.). Upon arrival, bacteria were striped on blood agar plates (TSA+5% sheep blood from Remel, Kansas City. Mo.) and cultured at 37° C. for 24 hrs. A fresh single bacterial colony picked from the agar plate was inoculated into 10 ml of Muller Hinton II broth (MHB) and cultured at 37° C. for 4-6 hrs. until reaching an absorbance of 0.8 with a 625 nm spectrophotometer filter. At this absorbance, the MHB has been documented to contain 1×10^5 colony forming units (CFU) in a 50 μl volume.
For the experiment, 56 female Balb/c mice (BW˜[…]) at 7-10 days of lactation were used. Four groups of n=14 mice were used for each experiment as described below. For intramammary inoculation the protocol described by Chandler was followed (J. Med. Microbiol. V3; 273-282: 1970) with minor modifications. […]
All mice were euthanized (using CO2) following the AVMA euthanasia guidelines 24 hours after the last treatment. […] Dilutions (10^−1, 10^−2, and 10^−3) of the homogenates were plated quantitatively to determine the number of CFU per gland. […]

[6] = tested on: Escherichia coli; assay type: cell-based
Procedure: as §2, §3

[7] = tested on: Corynebacterium species; experiment: MIC against clinical isolates of mastitis pathogens; assay type: cell-based; conditions: clinical isolate 404-C18, Corynebacterium species, multidrug resistance ++
Procedure: as §1, §2, §3

[8] = Staphylococcus aureus, first duplicate
[9] = Staphylococcus aureus, second duplicate

| Substance | MIC duplicates [1, 8] | MIC duplicates [1, 9] | also measured |
| --- | --- | --- | --- |
| GLARILLRLLFFRG [WB14-F1, GLARILLRLLFFRG] | – | – | MIC duplicates [1]: 8.0,8.0 μg/ml |
| GLARILLRLLFRFG (Antimicrobial peptide sequence) [WB14-N1, antimicrobial agent optimized for helical stability] | 128,128 μg/ml | 128,128 μg/ml | – |
| GLARILLRWLFRFG [WB14-N, GLARILLRWLFRFG] | – | – | MIC duplicates [1]: 4.0,4.0 μg/ml |
| GLPWILLRWLFFRG [WB14-A, GLPWILLRWLFFRG] | – | – | MIC [2]: 12.5 µM; MIC [3]: 25.0 µM; MIC [4]: 25.0 µM |
| GLTRILLRLLLRFG (Antimicrobial peptide sequence) [WB14-O4, antimicrobial agent optimized for helical stability] | 256,256 μg/ml | 256,256 μg/ml | – |
| GLVRILLRLLFRFG (Antimicrobial peptide sequence) [WB14-O1, antimicrobial agent optimized for helical stability] | 64 µg/mL | 128 µg/mL | – |
| GLVRILLRLLLRFG (Antimicrobial peptide sequence) [WB14-O2, antimicrobial agent optimized for helical stability] | 256 µg/mL | 128 µg/mL | – |
| GLVRILLRLLLRFS [WB14-O6, GLVRILLRLLLRFS] | – | – | MIC duplicates [1]: >256, >256 μg/ml |
| GLVRILLRLLLRYG (Antimicrobial peptide sequence) [WB14-O5, antimicrobial agent optimized for helical stability] | 64 µg/mL | 128 µg/mL | – |
| H-GLARILLRWLFFRG-OH [WB14-F, GLARILLRWLFFRG] | – | – | colony forming units (CFU) per mammary gland versus control groups [5]: a difference between the WB-14F versus the three control groups; MIC [6]: 4.0 µg/mL; MIC [2]: 8.0 µg/mL; MIC [4]: 16.0 µg/mL; MIC [7]: 16.0 µg/mL; antimicrobial activity compared with other peptides (in words) ([1]; Staphylococcus aureus MIC comparison): most efficacious antimicrobial synthetic peptide |
| SLVRILLRLLLRFG (Antimicrobial peptide sequence) [WB14-O3, antimicrobial agent optimized for helical stability] | 128,128 μg/ml | 128,128 μg/ml | – |

Reference: patent US9701716B2, “Water buffalo derived dimeric peptide containing proline for antibiotic therapies” (Centaur, Inc., priority 2014, dated 2017)
